Assay results published in ChEMBL document CHEMBL3621169, “Synthesis of tetrazole compounds as a novel type of potential antimicrobial agents and their synergistic effects with clinical drugs and interactions with calf thymus DNA” (Medchemcomm, 2015).
In brackets after ≈: the same amount, converted by molar mass.

Columns and labels:
Candida = assay: Antifungal activity against Candida mycoderma after 24 hrs by micro broth dilution method; assay type: functional
Staphylococcus aureus [1] = assay: Antibacterial activity against Staphylococcus aureus ATCC 25923 after 24 hrs by micro broth dilution method; assay type: functional; settings: ATCC 25923, 24 h
Shigella dysenteriae = assay: Antibacterial activity against Shigella dysenteriae ATCC 51252 after 24 hrs by micro broth dilution method; assay type: functional; settings: ATCC 51252, 24 h
Bacillus sp. = assay: Antibacterial activity against Bacillus proteus ATCC 13315 after 24 hrs by micro broth dilution method; assay type: functional; settings: Bacillus sp. (in: firmicutes), ATCC 13315, 24 h
Bacillus spizizenii = assay: Antibacterial activity against Bacillus subtilis ATCC 6633 after 24 hrs by micro broth dilution method; assay type: functional; settings: ATCC 6633, 24 h
Escherichia coli = assay: Antibacterial activity against Escherichia coli DH52 after 24 hrs by micro broth dilution method; assay type: functional; settings: DH52, 24 h
Aspergillus flavus = assay: Antifungal activity against Aspergillus flavus after 24 hrs by micro broth dilution method; assay type: functional
Pseudomonas aeruginosa = assay: Antibacterial activity against Pseudomonas aeruginosa ATCC 27853 after 24 hrs by micro broth dilution method; assay type: functional; settings: ATCC 27853, 24 h
[2] = Ionization constant, pKa of the compound by UV spectroscopy; assay type: physicochemical
[3] = n-octanol/water partition coefficient, log P of the compound at 25 deg C after 24 hrs by saturation shake flask based UV spectroscopy; assay type: physicochemical
Candida albicans = assay: Antifungal activity against Candida albicans ATCC 90029 after 24 hrs by micro broth dilution method; assay type: functional; settings: ATCC 90029, 24 h
Cyberlindnera jadinii = assay: Antifungal activity against Candida utilis ATCC 9950 after 24 hrs by micro broth dilution method; assay type: functional; settings: Williopsis jadinii, ATCC 9950, 24 h
Micrococcus luteus = assay: Antibacterial activity against Micrococcus luteus ATCC 4698 after 24 hrs by micro broth dilution method; assay type: functional; settings: ATCC 4698, 24 h
Staphylococcus aureus [4] = assay: Antibacterial activity against methicillin-resistant Staphylococcus aureus N315 after 24 hrs by micro broth dilution method; assay type: functional; settings: N315, 24 h

Compound	MIC (Candida) [µg/mL]	MIC (Staphylococcus aureus [1]) [µg/mL]	MIC (Shigella dysenteriae) [µg/mL]	MIC (Bacillus sp.) [µg/mL]	MIC (Bacillus spizizenii) [µg/mL]	MIC (Escherichia coli) [µg/mL]	MIC (Aspergillus flavus) [µg/mL]	MIC (Pseudomonas aeruginosa) [µg/mL]	pKa [2]	logP at 24 h [3]	MIC (Candida albicans) [µg/mL]	MIC (Cyberlindnera jadinii) [µg/mL]	MIC (Micrococcus luteus) [µg/mL]	MIC (Staphylococcus aureus [4]) [µg/mL]
COc1ccc(N(Cc2nnn[nH]2)Cc2ccc(Cl)cc2Cl)cc1	8 (≈ 22 µM)	32 (≈ 87.9 µM)	32 (≈ 87.9 µM)	32 (≈ 87.9 µM)	32 (≈ 87.9 µM)	32 (≈ 87.9 µM)	16 (≈ 43.9 µM)	32 (≈ 87.9 µM)	4.29	1.58	16 (≈ 43.9 µM)	8 (≈ 22 µM)	32 (≈ 87.9 µM)	64 (≈ 176 µM)
CCCCCCN(Cc1nnn[nH]1)c1ccccc1	64 (≈ 247 µM)	128 (≈ 494 µM)	128 (≈ 494 µM)	128 (≈ 494 µM)	128 (≈ 494 µM)	128 (≈ 494 µM)	64 (≈ 247 µM)	128 (≈ 494 µM)	4.78	2.18	64 (≈ 247 µM)	64 (≈ 247 µM)	128 (≈ 494 µM)	256 (≈ 987 µM)
Clc1ccc(CN(Cc2nnn[nH]2)c2ccccc2)c(Cl)c1	8 (≈ 23.9 µM)	32 (≈ 95.7 µM)	64 (≈ 191 µM)	32 (≈ 95.7 µM)	32 (≈ 95.7 µM)	16 (≈ 47.9 µM)	16 (≈ 47.9 µM)	32 (≈ 95.7 µM)	4.54	1.67	16 (≈ 47.9 µM)	8 (≈ 23.9 µM)	64 (≈ 191 µM)	64 (≈ 191 µM)
N#CCN(Cc1ccc(F)cc1)c1ccccc1	128 (≈ 533 µM)	256 (≈ 1070 µM)	128 (≈ 533 µM)	256 (≈ 1070 µM)	128 (≈ 533 µM)	128 (≈ 533 µM)	128 (≈ 533 µM)	256 (≈ 1070 µM)			64 (≈ 266 µM)	128 (≈ 533 µM)	512 (≈ 2130 µM)	128 (≈ 533 µM)
CCn1cc(C(=O)O)c(=O)c2cc(F)c(N3CCNCC3)cc21 [NORFLOXACIN]		2 (≈ 6.26 µM)	0.5 (≈ 1.57 µM)	1 (≈ 3.13 µM)	1 (≈ 3.13 µM)	0.5 (≈ 1.57 µM)		0.5 (≈ 1.57 µM)					0.5 (≈ 1.57 µM)	0.5 (≈ 1.57 µM)
Fc1cccc(CN(Cc2nnn[nH]2)c2ccccc2)c1	32 (≈ 113 µM)	64 (≈ 226 µM)	32 (≈ 113 µM)	64 (≈ 226 µM)	32 (≈ 113 µM)	32 (≈ 113 µM)	32 (≈ 113 µM)	64 (≈ 226 µM)	4.19	1.29	32 (≈ 113 µM)	16 (≈ 56.5 µM)	64 (≈ 226 µM)	64 (≈ 226 µM)
Clc1ccc(CN(Cc2nnn[nH]2)c2ccccc2)cc1Cl	16 (≈ 47.9 µM)	128 (≈ 383 µM)	64 (≈ 191 µM)	128 (≈ 383 µM)	64 (≈ 191 µM)	64 (≈ 191 µM)	32 (≈ 95.7 µM)	64 (≈ 191 µM)	4.49	1.63	64 (≈ 191 µM)	32 (≈ 95.7 µM)	128 (≈ 383 µM)	128 (≈ 383 µM)
COc1ccc(N(CC#N)Cc2ccc(F)cc2F)cc1	256 (≈ 888 µM)	256 (≈ 888 µM)	256 (≈ 888 µM)	256 (≈ 888 µM)	128 (≈ 444 µM)	256 (≈ 888 µM)	128 (≈ 444 µM)	128 (≈ 444 µM)			128 (≈ 444 µM)	128 (≈ 444 µM)	128 (≈ 444 µM)	256 (≈ 888 µM)
Cc1ccc(N(Cc2nnn[nH]2)Cc2ccc(Cl)cc2Cl)cc1	8 (≈ 23 µM)	32 (≈ 91.9 µM)	32 (≈ 91.9 µM)	32 (≈ 91.9 µM)	64 (≈ 184 µM)	16 (≈ 45.9 µM)	16 (≈ 45.9 µM)	32 (≈ 91.9 µM)	4.26	1.99	16 (≈ 45.9 µM)	16 (≈ 45.9 µM)	32 (≈ 91.9 µM)	16 (≈ 45.9 µM)
COc1ccc(N(CC#N)Cc2ccc(Cl)cc2Cl)cc1	64 (≈ 199 µM)	128 (≈ 398 µM)	128 (≈ 398 µM)	128 (≈ 398 µM)	256 (≈ 797 µM)	256 (≈ 797 µM)	128 (≈ 398 µM)	256 (≈ 797 µM)			64 (≈ 199 µM)	128 (≈ 398 µM)	256 (≈ 797 µM)	128 (≈ 398 µM)
CCCCCCCCCCN(CC#N)c1ccccc1	128 (≈ 470 µM)	128 (≈ 470 µM)	512 (≈ 1880 µM)	128 (≈ 470 µM)	64 (≈ 235 µM)	64 (≈ 235 µM)	128 (≈ 470 µM)	256 (≈ 940 µM)			128 (≈ 470 µM)	256 (≈ 940 µM)	128 (≈ 470 µM)	128 (≈ 470 µM)
N#CCN(Cc1ccc(Cl)cc1Cl)c1ccccc1	64 (≈ 220 µM)	256 (≈ 879 µM)	256 (≈ 879 µM)	256 (≈ 879 µM)	128 (≈ 440 µM)	128 (≈ 440 µM)	256 (≈ 879 µM)	256 (≈ 879 µM)			128 (≈ 440 µM)	128 (≈ 440 µM)	256 (≈ 879 µM)	256 (≈ 879 µM)
CCCCCCN(CC#N)c1ccccc1	256 (≈ 1180 µM)	256 (≈ 1180 µM)	512 (≈ 2370 µM)	256 (≈ 1180 µM)	256 (≈ 1180 µM)	128 (≈ 592 µM)	128 (≈ 592 µM)	512 (≈ 2370 µM)			256 (≈ 1180 µM)	256 (≈ 1180 µM)	256 (≈ 1180 µM)	512 (≈ 2370 µM)
CCCCCCCCCCCCN(Cc1nnn[nH]1)c1ccccc1	64 (≈ 186 µM)	128 (≈ 373 µM)	256 (≈ 745 µM)	256 (≈ 745 µM)	64 (≈ 186 µM)	128 (≈ 373 µM)	32 (≈ 93.2 µM)	256 (≈ 745 µM)	4.92		128 (≈ 373 µM)	64 (≈ 186 µM)	128 (≈ 373 µM)	128 (≈ 373 µM)
CCCCCCCCCCCCN(CC#N)c1ccccc1	256 (≈ 852 µM)	256 (≈ 852 µM)	512 (≈ 1700 µM)	512 (≈ 1700 µM)	256 (≈ 852 µM)	256 (≈ 852 µM)	128 (≈ 426 µM)	512 (≈ 1700 µM)			256 (≈ 852 µM)	256 (≈ 852 µM)	128 (≈ 426 µM)	512 (≈ 1700 µM)
N#CCN(Cc1ccc(F)cc1F)c1ccccc1	256 (≈ 991 µM)	128 (≈ 496 µM)	256 (≈ 991 µM)	256 (≈ 991 µM)	256 (≈ 991 µM)	64 (≈ 248 µM)	256 (≈ 991 µM)	128 (≈ 496 µM)			128 (≈ 496 µM)	512 (≈ 1980 µM)	256 (≈ 991 µM)	256 (≈ 991 µM)
N#CCN(Cc1ccc(Cl)cc1)c1ccccc1	128 (≈ 499 µM)	128 (≈ 499 µM)	128 (≈ 499 µM)	128 (≈ 499 µM)	128 (≈ 499 µM)	128 (≈ 499 µM)	256 (≈ 997 µM)	64 (≈ 249 µM)			128 (≈ 499 µM)	128 (≈ 499 µM)	128 (≈ 499 µM)	256 (≈ 997 µM)
N#CCN(Cc1ccc(Cl)c(Cl)c1)c1ccccc1	128 (≈ 440 µM)	256 (≈ 879 µM)	128 (≈ 440 µM)	256 (≈ 879 µM)	128 (≈ 440 µM)	256 (≈ 879 µM)	256 (≈ 879 µM)	256 (≈ 879 µM)			64 (≈ 220 µM)	256 (≈ 879 µM)	256 (≈ 879 µM)	256 (≈ 879 µM)
N#CCN(Cc1cccc(F)c1)c1ccccc1	128 (≈ 533 µM)	64 (≈ 266 µM)	128 (≈ 533 µM)	128 (≈ 533 µM)	128 (≈ 533 µM)	256 (≈ 1070 µM)	256 (≈ 1070 µM)	256 (≈ 1070 µM)			64 (≈ 266 µM)	128 (≈ 533 µM)	256 (≈ 1070 µM)	128 (≈ 533 µM)
OC(Cn1cncn1)(Cn1cncn1)c1ccc(F)cc1F [FLUCONAZOLE]	2 (≈ 6.53 µM)						64 (≈ 209 µM)				0.5 (≈ 1.63 µM)	1 (≈ 3.27 µM)		
CCCCCCCCCCN(Cc1nnn[nH]1)c1ccccc1	32 (≈ 101 µM)	64 (≈ 203 µM)	64 (≈ 203 µM)	64 (≈ 203 µM)	32 (≈ 101 µM)	32 (≈ 101 µM)	32 (≈ 101 µM)	128 (≈ 406 µM)	4.87		32 (≈ 101 µM)	16 (≈ 50.7 µM)	32 (≈ 101 µM)	32 (≈ 101 µM)
N#CCN(Cc1ccccc1F)c1ccccc1	128 (≈ 533 µM)	128 (≈ 533 µM)	512 (≈ 2130 µM)	512 (≈ 2130 µM)	256 (≈ 1070 µM)	128 (≈ 533 µM)	128 (≈ 533 µM)	128 (≈ 533 µM)			128 (≈ 533 µM)	128 (≈ 533 µM)	256 (≈ 1070 µM)	128 (≈ 533 µM)
Cc1ccc(N(CC#N)Cc2ccc(F)cc2F)cc1	128 (≈ 470 µM)	128 (≈ 470 µM)	128 (≈ 470 µM)	128 (≈ 470 µM)	256 (≈ 940 µM)	128 (≈ 470 µM)	64 (≈ 235 µM)	256 (≈ 940 µM)			64 (≈ 235 µM)	128 (≈ 470 µM)	128 (≈ 470 µM)	256 (≈ 940 µM)
Cc1ccc(N(CC#N)Cc2ccc(Cl)cc2Cl)cc1	512 (≈ 1680 µM)	128 (≈ 419 µM)	256 (≈ 839 µM)	512 (≈ 1680 µM)	512 (≈ 1680 µM)	256 (≈ 839 µM)	128 (≈ 419 µM)	256 (≈ 839 µM)			64 (≈ 210 µM)	64 (≈ 210 µM)	512 (≈ 1680 µM)	128 (≈ 419 µM)
CCCCCCCCN(CC#N)c1ccccc1	64 (≈ 262 µM)	256 (≈ 1050 µM)	512 (≈ 2100 µM)	256 (≈ 1050 µM)	256 (≈ 1050 µM)	128 (≈ 524 µM)	256 (≈ 1050 µM)	512 (≈ 2100 µM)			256 (≈ 1050 µM)	256 (≈ 1050 µM)	256 (≈ 1050 µM)	256 (≈ 1050 µM)
N#CCN(Cc1ccccc1Cl)c1ccccc1	64 (≈ 249 µM)	128 (≈ 499 µM)	128 (≈ 499 µM)	128 (≈ 499 µM)	256 (≈ 997 µM)	256 (≈ 997 µM)	128 (≈ 499 µM)	128 (≈ 499 µM)			128 (≈ 499 µM)	64 (≈ 249 µM)	256 (≈ 997 µM)	128 (≈ 499 µM)
